≈ marks a conversion by molar mass, not a printed value. Read-outs that look alike come from different tables or passages of the source. Marks after values point to notes of the source that are not given here.
Legend:
Type in all cases: cell-based
S. aureus UC-20206 = test: Determination of minimum inhibitory concentration (microdilution); details: Staphylococcus aureus, UC20206, 18 h
S. epidermidis UC-20207 [1] = test: as above; details: Staphylococcus epidermidis, UC20207; S. epidermidis UC-20207; 18 h; read-out: MIC (minimum inhibitory concentration)
S. epidermidis UC-20208 = test: as above; details: Staphylococcus epidermidis, UC20208; S. epidermidis UC-20208; 18 h; read-out: MIC (minimum inhibitory concentration)
S. epidermidis RP62A [2] = test: Microtiter-plate adherence assay on polystyrene; details: 18 h; for Adherence Mean OD550: S. epidermidis RP62A
Description: (§1) Briefly, the inoculum was established by the direct colony suspension method using the Prompt™ Inoculation System (Becton Dickinson, Sparks, Md.). The bacteria suspension, which was equal to the turbidity of a 0.5 McFarland standard, was diluted in TSB to a concentration of 1×10^6 colony forming units per ml (CFU/mL). One hundred microliters of the cell suspension was added to flat-bottom polystyrene wells (Corning Costar, Corning, N.Y.) containing 100 μl of TSB, with and without drug. The final inoculum concentration per well was approximately 5×10^5 CFU/mL. The plates were incubated at 37° C. under static conditions in air. At 18 hours (h) post-infection, the optical density of bacterial growth was measured at a wavelength of 595 nm in a microtiter plate reader (Vmax; Molecular Devices, Sunnyvale, Calif.). […] Adherent “sessile” cells then were fixed with 3.7% (v/v) formaldehyde/2% (w/v) sodium acetate and stained with 0.1% (w/v) crystal violet. Excess stain was rinsed off with deionized water and the plates were air-dried for 4 h. The optical density of bacterial adherence was determined at a wavelength of 550 nm. […] To compensate for background absorbance, optical density readings from wells treated with sterile medium, fixative and stain as described above were averaged and then subtracted from all test and control wells. Relative inhibition of adherence or growth was expressed by the following equation: (OD of control well−OD of treated well/OD of control well)×100, where OD is the mean optical density of six replicate wells from two separate experiments (three replicates per experiment). Control was defined as infected, drug-free cultures.
(§2) The primary efficacy variable in this study was the measurement of adherent bacterial cells to polystyrene after 18 h of growth. To determine whether statistically significant differences existed between treatment groups (MIC, ½ MIC, and ¼ MIC) compared with the infected-nontreated controls, the Kruskal-Wallis one-way analysis of variance (ANOVA) was applied for each clinical strain. Statistical significance was defined as p-values ≦0.05. An asterisk (*) was placed by all test values less than or equal to the specified significance level.

S. epidermidis UC-20207 [3] = test: Microtiter-plate adherence assay on polystyrene; details: for Adherence Mean OD550: S. epidermidis UC-20207, 18 h
Description: as §1, §2

S. epidermidis RP62A [4] = test: Time course adherence assay (prophylactic and delayed treatment); details: for inhibition at 1 µg/mL / inhibition at 2 µg/mL / inhibition at 4 µg/mL / inhibition at 8 µg/mL: Staphylococcus epidermidis, read-out: Percent inhibition of bacterial adherence relative to controls
Description: Drug effects on bacterial adherence were measured 18 hours after treatment initiation using a quantitative spectrophotometric assay.
Relative inhibition of adherence was expressed by the following equation: (OD of control well−OD of treated well/OD of control well)×100, where OD is the mean optical density of six replicate wells from two separate experiments (three replicates per experiment). Control was defined as infected, drug-free cultures.
The primary efficacy variable in this study was the measurement of adherent bacteria to polystyrene surfaces after 18 hours to 24 hours of growth. To determine whether statistically significant differences existed between treatments (4×MIC, 2×MIC, MIC, and ½ MIC) compared with the infected-nontreated controls, multiple comparisons according to Dunnett's test (Montgomery, Design and Analysis of Experiments (1991)) were applied for each clinical strain. Differences were considered statistically significant when p<0.05.

[5] = Staphylococcus epidermidis, RP62A, read-out: Adherence % Inhibition
[6] = Staphylococcus epidermidis, UC20207, 18 h, read-out: Adherence % Inhibition

CC(=O)NC[C@H]1CN(c2ccc(N3CCOCC3)c(F)c2)C(=O)O1 [Linezolid, (S)-N-[[3-[3-fluoro-4-(4-morpholinyl)phenyl]-2-oxo-5-oxazolidinyl]methyl]acetamide]
MIC (S. aureus UC-20206): 4 µg/mL (≈ 11.9 µM)
MIC (S. epidermidis UC-20207 [1]): 2 µg/mL (≈ 5.93 µM)
MIC (S. epidermidis UC-20208): 2 µg/mL (≈ 5.93 µM)
Adherence Mean OD550 (S. epidermidis RP62A [2]; drug 0.5 μg/ml): 0.125 ± 0.133*
Adherence Mean OD550 (S. epidermidis RP62A [2]; drug 1.0 μg/ml): 0.002 ± 0.002*
Adherence Mean OD550 (S. epidermidis RP62A [2]; drug 2.0 μg/ml (MIC)): 0.001 ± 0.001*
inhibition at 0.5 µg/mL (S. epidermidis RP62A [2]; [5]): 95.5%
inhibition at 1 µg/mL (S. epidermidis RP62A [2]; [5]): 99.9%
inhibition at 2 µg/mL (S. epidermidis RP62A [2]; [5]): 100%
Adherence Mean OD550 (S. epidermidis UC-20207 [3]; drug 0.5 μg/ml): 0.513 ± 0.227*
Adherence Mean OD550 (S. epidermidis UC-20207 [3]; drug 1.0 μg/ml): 0.007 ± 0.002*
Adherence Mean OD550 (S. epidermidis UC-20207 [3]; drug 2.0 μg/ml (MIC)): 0.010 ± 0.005*
inhibition at 0.5 µg/mL (S. epidermidis UC-20207 [3]; [6]): 76.9%
inhibition at 1 µg/mL (S. epidermidis UC-20207 [3]; [6]): 99.7%
inhibition at 2 µg/mL (S. epidermidis UC-20207 [3]; [6]): 99.5%
Mean OD550 (S. epidermidis RP62A [4]; 1.0 μg/ml, treatment 0 h post-infection): 0.000 ± 0.002
Mean OD550 (S. epidermidis RP62A [4]; 1.0 μg/ml, treatment 2 h post-infection): 0.000 ± 0.000
Mean OD550 (S. epidermidis RP62A [4]; 1.0 μg/ml, treatment 4 h post-infection): 0.000 ± 0.001
Mean OD550 (S. epidermidis RP62A [4]; 1.0 μg/ml, treatment 6 h post-infection): 0.274 ± 0.183
Mean OD550 (S. epidermidis RP62A [4]; 2.0 μg/ml (MIC), treatment 0 h post-infection): 0.004 ± 0.004
Mean OD550 (S. epidermidis RP62A [4]; 2.0 μg/ml (MIC), treatment 2 h post-infection): 0.001 ± 0.001
Mean OD550 (S. epidermidis RP62A [4]; 2.0 μg/ml (MIC), treatment 4 h post-infection): 0.003 ± 0.005
Mean OD550 (S. epidermidis RP62A [4]; 2.0 μg/ml (MIC), treatment 6 h post-infection): 0.083 ± 0.067
Mean OD550 (S. epidermidis RP62A [4]; 4.0 μg/ml, treatment 0 h post-infection): 0.002 ± 0.002
Mean OD550 (S. epidermidis RP62A [4]; 4.0 μg/ml, treatment 2 h post-infection): 0.003 ± 0.002
Mean OD550 (S. epidermidis RP62A [4]; 4.0 μg/ml, treatment 4 h post-infection): 0.002 ± 0.004
Mean OD550 (S. epidermidis RP62A [4]; 4.0 μg/ml, treatment 6 h post-infection): 0.082 ± 0.051
Mean OD550 (S. epidermidis RP62A [4]; 8.0 μg/ml, treatment 0 h post-infection): 0.002 ± 0.002
Mean OD550 (S. epidermidis RP62A [4]; 8.0 μg/ml, treatment 2 h post-infection): 0.003 ± 0.001
Mean OD550 (S. epidermidis RP62A [4]; 8.0 μg/ml, treatment 4 h post-infection): 0.000 ± 0.001
Mean OD550 (S. epidermidis RP62A [4]; 8.0 μg/ml, treatment 6 h post-infection): 0.021 ± 0.010
inhibition at 1 µg/mL (S. epidermidis RP62A [4]; 0 h): 100%
inhibition at 2 µg/mL (S. epidermidis RP62A [4]; 0 h): 99.8%
inhibition at 4 µg/mL (S. epidermidis RP62A [4]; 0 h): 99.9%
inhibition at 8 µg/mL (S. epidermidis RP62A [4]; 0 h): 99.9%
inhibition at 1 µg/mL (S. epidermidis RP62A [4]; 2 h): 100%
inhibition at 2 µg/mL (S. epidermidis RP62A [4]; 2 h): 99.9%
inhibition at 4 µg/mL (S. epidermidis RP62A [4]; 2 h): 99.9%
inhibition at 8 µg/mL (S. epidermidis RP62A [4]; 2 h): 99.8%
inhibition at 1 µg/mL (S. epidermidis RP62A [4]; 4 h): 100%
inhibition at 2 µg/mL (S. epidermidis RP62A [4]; 4 h): 99.8%

From US7322965B2, “Infection-resistant medical devices” (priority 2002, dated 2008)
